# According to patent publication US8663646B2, “P53 peptide vaccine” (priority 2007, dated 2014):
# Where no end group is shown, it is not given here.
# Key:
# [1] = molecular target: T1, 20S immuno-proteasomes from mouse B-cell line (RMA) (Mus musculus, UniProt O35955+P28063+P28076); experiment: In vitro proteasome mediated digestion of 30-mers, mass spectrometry, immunoproteasome RMA; format: biochemical; settings: 30 residue long precursor peptides
# T1 construct: 20S immuno-proteasomes were purified from a mouse B-cell line (RMA); endogenous in cells; host or cells: RMA cells; 20S proteasome purified from them
# Protocol: (§1) In the context of the invention, “being inefficiently processed by a proteasome” preferably means that within the first hour of digestion by a proteasome less than 1% of total digested peptide is found. The processing by a proteasome is preferably assessed by incubating a purified proteasome, more preferably a human proteasome with a peptide comprising the potential CTL epitope (30 amino acid length approximately) in a proteasome digestion buffer during at least one hour at 37° C. The reaction is subsequently stopped by adding trifluoroacetic acid. Analysis of the digested peptides is performed with electrospray ionization mass spectrometry (see example 1). Even more preferably, the human proteasome is an immunoproteasome from B-LCL JY cells (Kessler J H et al. 2001).
# (§2) 20S immuno-proteasomes were purified from a mouse B-cell line (RMA) and a human B-LCL cell line (JY) and 20S household proteasomes were purified from human tumor cell line (HeLa) as described (Kessler J H et al 2001). To assess kinetics, digestions were performed with different incubation periods as indicated. Briefly, peptides containing the (potential) CTL epitopes (30 mers, 20 μg) were incubated with 1 μg of purified proteasome at 37° C. for 1 h, 4 h and 24 h in 300 μl proteasome digestion buffer, trifluoroacetic acid (30 μl) was added to stop the digestion and samples were stored at −20° C. before mass spectrometric analysis. Electrospray ionization mass spectrometry was performed on a hybrid quadrupole time-of-flight mass spectromter, a Q-TOF (Micromass), equipped with an on-line nanoelectrospray interface with an approximate flow rate of […] as described (Kessler J H et al 2001). The peaks in the mass spectrum were searched in the digested precursor peptide using the Biolynx/proteins software (Micromass) supplied with the mass spectrometer. The intensity of the peaks in the mass spectra was used to establish the relative amounts of peptides generated after proteasome digestion. The relative amounts of the peptides are given as a percentage of the total amount of peptide digested by the proteasome at the indicated incubation time. Major cleavage sites are defined as more than >1% of total digested peptide within the first hour.
# [2] = molecular target: T2, HLA-A*0301 (Homo sapiens, UniProt P04439); experiment: Stability of peptide-HLA complex, binding at 4° C. and 20° C., HLA-A*0301; settings: for Peptide Binding Stability: HLA-A*0301, IC50 at 20° C. vs 4° C.
# T2 construct: B-cell lines used are: CAA (A*0101), EKR (A*0301), BVR (A*1101), VIJF (A*2401); endogenous in cells; host or cells: B-cell line EKR
# Protocol: (§3) Stability of other peptide-HLA complexes was preferably determined as follows. […] Peptides of >50% of the initial complexes was lost within 2 hours were considered unstable. […] The rest was designated as unstable peptide binding.
# (§4) Peptides 8-11 residues in length were selected based on typical anchor residues for HLA-A*0101, A*0301, A*1101 and HLA-A*2401 (Rammensee H G et al). The capacity of peptides to bind was tested in a competition based cellular binding assay as previously described (van der Burg S H et al 1995). FL-labeled reference peptides were synthesized as Cys-derivative (van der Burg S H et al 1995). Fluorescence labeled reference peptides used were: YLEPAC(FL)AK (SEQ ID NO: 87) (HLA-A*0101) and KVFPC(FL)ALINK (SEQ ID NO: 88) (HLA-A*1101) (Sette A et al), KVFPC(FL)ALINK (SEQ ID NO: 89) (HLAA*0301) (van der Burg S H et al 1995) and RYLKC(FL)QQLL (SEQ ID NO: 90) (A*2401) (Dai L C et al). B-cell lines used are: CAA (A*0101), EKR (A*0301), BVR (A*1101), VIJF (A*2401). The relative binding capacity of the peptides is expressed as the peptide concentration to inhibit 50% (1050) of the binding of the reference peptide. […] Peptide stabilization for HLA-A*0201 was performed as previously described (van der Burg S H et al, 1996). Peptides of >50% of the initial complexes was lost within 2 hours were considered unstable. Stability of other peptide-HLA complexes was determined as follows. Peptide binding was performed at 4° C. and 20° C. and 1050 were determined. […] The rest was designated as unstable peptide binding.
# [3] = molecular target: T2, HLA-A*0301; experiment: Competition based cellular binding assay, HLA-A*0301 (B-cell line EKR)
# [4] = molecular target: T3, 20S immuno-proteasomes from human B-LCL cell line (JY) (Homo sapiens, UniProt P28062+P28065+P40306); experiment: In vitro proteasome mediated digestion of 30-mers, mass spectrometry, immunoproteasome JY; format: biochemical; settings: 30 residue long precursor peptides
# T3 construct: purified from a mouse B-cell line (RMA) and a human B-LCL cell line (JY); endogenous in cells; host or cells: B-LCL JY cells; 20S proteasome purified from them
# Protocol: as §1, §2
# [5] = molecular target: T4, HLA-A*1101 (Homo sapiens, UniProt P04439, A114D/D185E/E176A/F33Y/L180Q/S129P/T187R); experiment: Stability of peptide-HLA complex, binding at 4° C. and 20° C., HLA-A*1101; settings: for HLA binding Stability (Table 5): HLA type A11; for Peptide Binding Stability: HLA-A*1101, IC50 at 20° C. vs 4° C.
# T4 construct: B-cell lines used are: CAA (A*0101), EKR (A*0301), BVR (A*1101), VIJF (A*2401); endogenous in cells; host or cells: B-cell line BVR
# Protocol: as §3, §4
# [6] = molecular target: T4, HLA-A*1101; experiment: Competition based cellular binding assay, HLA-A*1101 (B-cell line BVR); settings: for HLA binding Affinity (Table 5): HLA type A11
HLA binding Affinity (Table 5) [6],"Peptide Binding Affinity ([6]; HLA-A*1101, IC50 category)","IC50 ([6]; HLA-A*1101, IC50 category, read-out: Peptide Binding Affinity)",HLA binding Affinity (Table 5) ([3]; HLA type A3),"IC50 ([3]; HLA-A*0301, IC50 category, read-out: Peptide Binding Affinity)",Compound,"Proteasomal Cleavage of C-terminus, IP (RMA) [1]",Peptide Binding Stability [2],"Peptide Binding Affinity ([3]; HLA-A*0301, IC50 category)","Proteasomal Cleavage of C-terminus, IP (JY) [4]",HLA binding Stability (Table 5) [5],Peptide Binding Stability [5],HLA binding Stability (Table 5) ([2]; HLA type A3)
high,high,,,,C[C@@H](O)[C@H](N)C(=O)N[C@@H](CO)C(=O)N[C@@H](CO)C(=O)N[C@@H](CO)C(=O)N1CCC[C@H]1C(=O)N[C@@H](CCC(N)=O)C(=O)N1CCC[C@H]1C(=O)N[C@@H](CCCCN)C(=O)O [p53 312-319],,,,,+/− (Peptides that displayed IC50 at 20 °C of more than twice the IC50 at 4 °C but IC50 < 15 μM were considered to bind with intermediate stability.),+/− (Peptides that displayed IC50 at 20 °C of more than twice the IC50 at 4 °C but IC50 < 15 μM were considered to bind with intermediate stability.),
high,high,,,,C[C@@H](O)[C@H](NC(=O)[C@@H](N)CC(N)=O)C(=O)N[C@@H](CO)C(=O)N[C@@H](CO)C(=O)N[C@@H](CO)C(=O)N1CCC[C@H]1C(=O)N[C@@H](CCC(N)=O)C(=O)N1CCC[C@H]1C(=O)N[C@@H](CCCCN)C(=O)N[C@@H](CCCCN)C(=O)O [p53 311-320],,,,,+/− (Peptides that displayed IC50 at 20 °C of more than twice the IC50 at 4 °C but IC50 < 15 μM were considered to bind with intermediate stability.),+/− (Peptides that displayed IC50 at 20 °C of more than twice the IC50 at 4 °C but IC50 < 15 μM were considered to bind with intermediate stability.),
,,,int,5 to 15 µM,CC(C)C[C@H](NC(=O)[C@@H](N)Cc1ccccc1)C(=O)N[C@@H](Cc1c[nH]cn1)C(=O)N[C@@H](CO)C(=O)NCC(=O)N[C@H](C(=O)N[C@@H](C)C(=O)N[C@@H](CCCCN)C(=O)O)[C@@H](C)O [p53 113-120],+ (Major cleavage sites are defined as more than >1% of total digested peptide within the first hour),+/− (Peptides that displayed IC50 at 20 °C of more than twice the IC50 at 4 °C but IC50 < 15 μM were considered to bind with intermediate stability.),,+ (Major cleavage sites are defined as more than >1% of total digested peptide within the first hour),,,− (The rest was designated as unstable peptide binding.)

# The next lines start with the compound.
Compound,HLA binding Affinity (Table 5) [6],"Peptide Binding Affinity ([6]; HLA-A*1101, IC50 category)","IC50 ([6]; HLA-A*1101, IC50 category, read-out: Peptide Binding Affinity)",HLA binding Affinity (Table 5) ([3]; HLA type A3),"IC50 ([3]; HLA-A*0301, IC50 category, read-out: Peptide Binding Affinity)","Proteasomal Cleavage of C-terminus, IP (RMA) [1]",Peptide Binding Stability [2],"Peptide Binding Affinity ([3]; HLA-A*0301, IC50 category)","Proteasomal Cleavage of C-terminus, IP (JY) [4]",HLA binding Stability (Table 5) [5],Peptide Binding Stability [5],HLA binding Stability (Table 5) ([2]; HLA type A3)
CC(C)C[C@H](NC(=O)[C@H](Cc1ccccc1)NC(=O)CNC(=O)[C@H](CC(C)C)NC(=O)[C@@H](N)CCCNC(=N)N)C(=O)N[C@@H](Cc1c[nH]cn1)C(=O)N[C@@H](CO)C(=O)NCC(=O)N[C@H](C(=O)N[C@@H](C)C(=O)N[C@@H](CCCCN)C(=O)O)[C@@H](C)O [p53 110-120],,,,,,+ (Major cleavage sites are defined as more than >1% of total digested peptide within the first hour),+ (Stable peptides displayed IC50 at 20 °C that deviated <2 times of the IC50 at 4° C.),high,+ (Major cleavage sites are defined as more than >1% of total digested peptide within the first hour),,,
C[C@@H](O)[C@H](NC(=O)[C@@H](N)CC(N)=O)C(=O)N[C@@H](CO)C(=O)N[C@@H](CO)C(=O)N[C@@H](CO)C(=O)N1CCC[C@H]1C(=O)N[C@@H](CCC(N)=O)C(=O)N1CCC[C@H]1C(=O)N[C@@H](CCCCN)C(=O)O [p53 311-319],high,high,,,,,,,,+/− (Peptides that displayed IC50 at 20 °C of more than twice the IC50 at 4 °C but IC50 < 15 μM were considered to bind with intermediate stability.),+/− (Peptides that displayed IC50 at 20 °C of more than twice the IC50 at 4 °C but IC50 < 15 μM were considered to bind with intermediate stability.),
RTEEENLRK [p53 283-291],int,,5 to 15 µM,,,,,,,+/− (Peptides that displayed IC50 at 20 °C of more than twice the IC50 at 4 °C but IC50 < 15 μM were considered to bind with intermediate stability.),+/− (Peptides that displayed IC50 at 20 °C of more than twice the IC50 at 4 °C but IC50 < 15 μM were considered to bind with intermediate stability.),
